Experimental data reported in ChEMBL document CHEMBL6083291, “Discovery of Thiochroman Derivatives as Potent, Oral Selective Estrogen Receptor Degraders and Antagonists for the Treatment of Endocrine-Resistant Breast Cancer” (J Med Chem, 2024).

Tests used:
T47D = assay: Antiproliferative activity against human T47D cells assessed as reduction in cell viability
CAMA-1 = assay: Antiproliferative activity against human CAMA-1 cells assessed as reduction in cell viability
BT-474 = assay: Antiproliferative activity against human BT-474 cells assessed as reduction in cell viability
MCF7 [1] = assay: Antiproliferative activity against human MCF7 cells assessed as reduction in cell viability incubated for 6 days by CellTiter-Glo reagent based luminescence analysis
MDA-MB-361 = assay: Antiproliferative activity against human MDA-MB-361 cells assessed as reduction in cell viability
[2] = target: Voltage-gated inwardly rectifying potassium channel KCNH2 (Homo sapiens, UniProt Q12809); assay: Inhibition of hERG expressed in CHO cells assessed as inhibition of channel current by automated Qpatch clamp analysis
Estrogen receptor [3] = target: T1, Estrogen receptor (Homo sapiens, UniProt P03372); assay: Induction of ER-alpha degradation in human MCF7 cells incubated for 24 hrs by In-Cell Western blot analysis; format: cell-based
T1 sequence (P03372 whole entry): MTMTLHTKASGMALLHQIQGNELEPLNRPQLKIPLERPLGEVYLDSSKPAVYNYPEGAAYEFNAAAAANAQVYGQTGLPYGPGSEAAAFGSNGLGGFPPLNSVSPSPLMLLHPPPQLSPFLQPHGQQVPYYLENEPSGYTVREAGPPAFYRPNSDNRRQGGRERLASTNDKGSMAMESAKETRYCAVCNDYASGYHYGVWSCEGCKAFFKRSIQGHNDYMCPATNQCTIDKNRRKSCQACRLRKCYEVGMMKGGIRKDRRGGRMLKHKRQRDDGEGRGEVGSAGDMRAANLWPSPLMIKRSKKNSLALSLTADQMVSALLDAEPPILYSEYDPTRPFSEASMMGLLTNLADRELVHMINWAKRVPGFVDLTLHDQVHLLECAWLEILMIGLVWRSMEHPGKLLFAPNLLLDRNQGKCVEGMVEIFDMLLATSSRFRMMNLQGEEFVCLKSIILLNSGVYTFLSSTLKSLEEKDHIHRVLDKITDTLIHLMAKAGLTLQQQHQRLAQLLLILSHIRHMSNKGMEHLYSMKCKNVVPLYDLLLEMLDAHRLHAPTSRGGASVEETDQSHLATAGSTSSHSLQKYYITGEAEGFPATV

[4] = Toxicity in Sprague-Dawley rat assessed as thickened endometrium in uterus at 0.1 mg/kg, po qd for 3 days by Hematoxylin-Eosin staining based analysis; format: organism-based; details: in vivo, 72 h, time 3 day
[5] = Estrogenic like activity in Sprague-Dawley rat assessed as increase in ratio of uterine wet weight to body weight at 0.1 mg/kg, po qd for 3 days relative to control; format: toxicity, organism-based; details: in vivo, 72 h, time 3 day
MCF7 [6] = assay: Antiproliferative activity against human MCF7 cells harboring ER-alpha Y537S mutant assessed as inhibition of cell growth
[7] = Antiproliferative activity against endocrine-resistant human MCF7 Tam1 cells assessed as inhibition of cell growth; details: Tamoxifen-resistant MCF7
Estrogen receptor [8] = target: T1, Estrogen receptor; format: cell-based, HEK293
[9] = Antagonist activity at ER-alpha D538G mutant (unknown origin) expressed in human MCF7 cells assessed as inhibition of ER-alpha transcription by immunofluorescence assay
[10] = Antagonist activity at ER-alpha Y537S mutant (unknown origin) expressed in human MCF7 cells assessed as inhibition of ER-alpha transcription by immunofluorescence assay

Voltage-gated inwardly rectifying potassium channel KCNH2, sequence (Q12809 whole entry): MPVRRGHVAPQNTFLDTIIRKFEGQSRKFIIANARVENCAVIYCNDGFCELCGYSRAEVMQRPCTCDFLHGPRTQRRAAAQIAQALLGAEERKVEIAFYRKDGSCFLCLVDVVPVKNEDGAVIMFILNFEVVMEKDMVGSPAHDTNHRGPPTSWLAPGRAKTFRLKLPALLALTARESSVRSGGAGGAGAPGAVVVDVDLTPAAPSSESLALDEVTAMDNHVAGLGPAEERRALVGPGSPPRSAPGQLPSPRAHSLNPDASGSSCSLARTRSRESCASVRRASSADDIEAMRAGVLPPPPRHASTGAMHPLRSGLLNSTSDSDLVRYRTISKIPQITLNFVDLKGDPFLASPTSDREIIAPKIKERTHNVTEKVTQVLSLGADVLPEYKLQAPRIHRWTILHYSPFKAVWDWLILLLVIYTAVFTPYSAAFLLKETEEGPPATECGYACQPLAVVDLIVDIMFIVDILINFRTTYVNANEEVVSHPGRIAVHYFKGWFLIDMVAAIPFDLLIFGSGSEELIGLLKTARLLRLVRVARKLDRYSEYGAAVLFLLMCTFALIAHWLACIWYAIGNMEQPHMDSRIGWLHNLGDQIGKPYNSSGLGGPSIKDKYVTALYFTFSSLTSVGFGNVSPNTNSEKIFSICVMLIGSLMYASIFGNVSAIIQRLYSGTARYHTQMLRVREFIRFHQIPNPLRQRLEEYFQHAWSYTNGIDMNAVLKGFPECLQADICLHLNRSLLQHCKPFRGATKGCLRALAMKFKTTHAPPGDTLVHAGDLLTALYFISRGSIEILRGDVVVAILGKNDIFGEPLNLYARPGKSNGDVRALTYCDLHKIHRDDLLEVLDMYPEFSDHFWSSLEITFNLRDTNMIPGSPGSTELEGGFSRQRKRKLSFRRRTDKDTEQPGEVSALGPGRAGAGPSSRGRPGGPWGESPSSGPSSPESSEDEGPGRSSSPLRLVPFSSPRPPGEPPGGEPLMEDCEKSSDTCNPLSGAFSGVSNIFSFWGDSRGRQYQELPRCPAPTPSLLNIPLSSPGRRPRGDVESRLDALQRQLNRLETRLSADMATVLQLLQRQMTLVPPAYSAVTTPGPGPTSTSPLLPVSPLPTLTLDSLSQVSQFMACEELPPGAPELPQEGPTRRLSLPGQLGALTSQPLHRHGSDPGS

## Oc1ccc2c(c1)SC[C@H](c1cc(F)c(F)cc1F)[C@@H]2c1ccc(OCCN2CC(CF)C2)cc1
T47D
  IC50: 4 nM
CAMA-1
  IC50: 4 nM
BT-474
  IC50: 4 nM
MCF7 [1]; mcf7
  IC50: 0.25 nM
MDA-MB-361
  IC50: ~15 nM

## COc1ccc([C@H]2COc3cc(O)ccc3[C@H]2c2ccc(OCCN3CC(CF)C3)cc2)cn1 (racemic)
MCF7 [1]; Homo sapiens, MCF7, 144 h
  IC50: 0.86 nM

## Oc1ccc2c(c1)OCC(c1ccc(F)cc1F)=C2c1ccc(OCCN2CC(CF)C2)cc1
MCF7 [1]; Homo sapiens, MCF7, 144 h
  IC50: 58 nM

## COc1cc(F)ccc1[C@H]1CSc2cc(O)ccc2[C@H]1c1ccc(OCCN2CC(CF)C2)c(F)c1 (racemic)
[2]
  IC50: > 40 µM
MCF7 [1]; Homo sapiens, MCF7, 144 h
  IC50: 0.7 nM

## COc1cc(F)ccc1[C@H]1CSc2c(ccc3[nH]ncc23)[C@H]1c1ccc(OCCN2CC(CF)C2)cc1 (racemic)
Estrogen receptor [3]
  DC50: 6.3 nM
MCF7 [1]; Homo sapiens, MCF7, 144 h
  IC50: 7.4 nM

## Oc1ccc2c(c1)OC[C@H](c1ccc(F)cc1F)[C@@H]2c1ccc(O[C@H]2CCN(CCCF)C2)cc1 (racemic)
MCF7 [1]; Homo sapiens, MCF7, 144 h
  IC50: 7.7 nM

## Oc1ccc2c(c1)SC[C@H](c1ccc(F)cc1F)[C@@H]2c1ccc(OCCN2CC(CF)C2)cc1 (racemic)
[2]
  IC50: 13 µM
MCF7 [1]; Homo sapiens, MCF7, 144 h
  IC50: 0.6 nM

## CC(=O)N1CCC([C@H]2COc3cc(O)ccc3[C@H]2c2ccc(OCCN3CC(CF)C3)cc2)CC1 (racemic)
Estrogen receptor [3]
  DC50: 24 nM
MCF7 [1]; Homo sapiens, MCF7, 144 h
  IC50: 9.5 nM

## FCC1CN(CCOc2ccc([C@@H]3c4ccc5[nH]ncc5c4SC[C@@H]3c3cc(F)c(F)cc3F)cc2)C1 (racemic)
Estrogen receptor [3]
  DC50: 6.6 nM
MCF7 [1]; Homo sapiens, MCF7, 144 h
  IC50: 5.8 nM

## C#C[C@]1(O)CC[C@H]2[C@@H]3CCc4cc(O)ccc4[C@H]3CC[C@@]21C [ETHINYL ESTRADIOL]
[4]
  Activity: Toxic
[5]
  fold change (FC): 3

## COc1ccc([C@H]2CSc3cc(O)ccc3[C@H]2c2ccc(OCCN3CC(CF)C3)cc2)c(F)c1 (racemic)
MCF7 [1]; Homo sapiens, MCF7, 144 h
  IC50: 0.4 nM

## Oc1ccc2c(c1)OC[C@H](C1CCOCC1)[C@@H]2c1ccc(OCCN2CC(CF)C2)cc1 (racemic)
MCF7 [1]; Homo sapiens, MCF7, 144 h
  IC50: 1.6 nM

## Oc1ccc2c(c1)OC[C@H](c1ccc(F)cc1F)[C@@H]2c1ccc(NC2CN(CCCF)C2)cc1 (racemic)
[2]
  IC50: 3.6 µM
Estrogen receptor [3]
  DC50: 1 nM
MCF7 [1]; Homo sapiens, MCF7, 144 h
  IC50: 3.1 nM

## Oc1ccc2c(c1)OC[C@H](c1ccc(F)cc1F)[C@@H]2c1cc(F)c(OCCN2CC(CF)C2)c(F)c1 (racemic)
[2]
  IC50: 1.9 µM
MCF7 [1]; Homo sapiens, MCF7, 144 h
  IC50: 1.4 nM

## Cc1cc(F)ccc1[C@H]1CSc2cc(O)ccc2[C@H]1c1ccc(OCCN2CC(CF)C2)cc1 (racemic)
MCF7 [1]; Homo sapiens, MCF7, 144 h
  IC50: 0.8 nM

## Oc1ccc2c(c1)SC[C@H](c1cc(F)c(F)cc1F)[C@@H]2c1ccc(OCCN2CC(CF)C2)cc1 (racemic)
MCF7 [1]; Homo sapiens, MCF7, 144 h
  IC50: 0.4 nM

## Oc1ccc2c(c1)OC[C@H](c1ccc(Cl)cc1F)[C@@H]2c1ccc(OCCN2CC(CF)C2)cc1 (racemic)
MCF7 [1]; Homo sapiens, MCF7, 144 h
  IC50: 4.2 nM

## O=C(CN1CC(CF)C1)Nc1ccc([C@@H]2c3ccc(O)cc3OC[C@@H]2c2ccc(F)cc2F)cc1 (racemic)
MCF7 [1]; Homo sapiens, MCF7, 144 h
  IC50: 243 nM

## Cn1cc([C@H]2COc3cc(O)ccc3[C@H]2c2ccc(OCCN3CC(CF)C3)cc2)cn1 (racemic)
Estrogen receptor [3]
  DC50: 98 nM
MCF7 [1]; Homo sapiens, MCF7, 144 h
  IC50: 38 nM

## Oc1ccc2c(c1)OC[C@H](c1ccc(F)cc1F)[C@@H]2c1ccc(OCCN2CC(CF)C2)cc1 (racemic)
MCF7 [1]; Homo sapiens, MCF7, 144 h
  IC50: 1.2 nM

## Oc1ccc2c(c1)CCC[C@H](c1ccc(F)cc1F)[C@@H]2c1ccc(OCCN2CC(CF)C2)cc1 (racemic)
[2]
  IC50: > 40 µM
Estrogen receptor [3]
  DC50: 22.7 nM
MCF7 [1]; Homo sapiens, MCF7, 144 h
  IC50: 19 nM

## CS(=O)(=O)N1CCC([C@H]2COc3cc(O)ccc3[C@H]2c2ccc(OCCN3CC(CF)C3)cc2)CC1 (racemic)
Estrogen receptor [3]
  DC50: 8.8 nM
MCF7 [1]; Homo sapiens, MCF7, 144 h
  IC50: 6.2 nM

## CC1(C)C[C@H](c2ccc(F)cc2F)[C@H](c2ccc(OCCN3CC(CF)C3)cc2)c2ccc(O)cc21 (racemic)
MCF7 [1]; Homo sapiens, MCF7, 144 h
  IC50: 8.8 nM

## COc1cc([C@@H]2c3ccc(O)cc3OC[C@@H]2c2ccc(F)cc2F)ccc1OCCN1CC(CF)C1 (racemic)
Estrogen receptor [3]
  DC50: 4.5 nM
MCF7 [1]; Homo sapiens, MCF7, 144 h
  IC50: 4.8 nM

## COc1cc(F)ccc1[C@H]1CS(=O)(=O)c2cc(O)ccc2[C@H]1c1ccc(OCCN2CC(CF)C2)cc1 (racemic)
[2]
  IC50: > 40 µM
MCF7 [1]; Homo sapiens, MCF7, 144 h
  IC50: 1.6 nM

## Oc1ccc2c(c1)OC[C@H](c1ccc(F)cc1F)[C@@H]2c1ccc(NCCN2CC(CF)C2)cc1 (racemic)
Estrogen receptor [3]
  DC50: 1.7 nM
MCF7 [1]; Homo sapiens, MCF7, 144 h
  IC50: 9.3 nM

## N#Cc1cc(F)ccc1[C@H]1COc2cc(O)ccc2[C@H]1c1ccc(OCCN2CC(CF)C2)cc1 (racemic)
MCF7 [1]; Homo sapiens, MCF7, 144 h
  IC50: 4.9 nM

## COc1cc(F)ccc1[C@H]1CSc2cc(O)ccc2[C@H]1c1ccc(NC2CN(CCCF)C2)cc1 (racemic)
[2]
  IC50: 22 µM
MCF7 [1]; Homo sapiens, MCF7, 144 h
  IC50: 0.9 nM

## COc1cc(F)ccc1[C@H]1COc2cc(O)ccc2[C@H]1c1ccc(OCCN2CC(CF)C2)cc1 (racemic)
[2]
  IC50: 4.8 µM
MCF7 [1]; Homo sapiens, MCF7, 144 h
  IC50: 0.56 nM

## Oc1ccc2c(c1)SC[C@@H](c1cc(F)c(F)cc1F)[C@H]2c1ccc(OCCN2CC(CF)C2)cc1
MCF7 [1]; Homo sapiens, MCF7, 144 h
  IC50: 714 nM

## Oc1ccc2c(c1)OCC[C@H](c1ccc(F)cc1F)[C@@H]2c1ccc(OCCN2CC(CF)C2)cc1 (racemic)
MCF7 [1]; Homo sapiens, MCF7, 144 h
  IC50: 47 nM

## COc1cc(F)ccc1[C@@H]1CSc2cc(O)ccc2[C@@H]1c1ccc(OCCN2CC(CF)C2)cc1
MCF7 [1]; Homo sapiens, MCF7, 144 h
  IC50: 25 nM

## Oc1ccc2c(c1)OC[C@H](c1cc(F)c(F)cc1F)[C@@H]2c1ccc(OCCN2CC(CF)C2)cc1 (racemic)
[2]
  IC50: 2.8 µM

## Oc1ccc2c(c1)OC[C@H](c1ccc(F)cc1F)[C@@H]2c1ccc(OCCN2CC(CF)C2)c(F)c1 (racemic)
[2]
  IC50: 6.4 µM

## C[C@@H]1Cc2c([nH]c3ccccc23)[C@@H](c2c(F)cc(NC3CN(CCCF)C3)cc2F)N1CC(F)(F)CO [GIREDESTRANT]
MCF7 [6]
  IC50: 6.77 nM
[7]
  IC50: 1.22 nM
Estrogen receptor [8]
  IC50: 0.43 nM
Estrogen receptor [3]
  DC50: 0.3 nM
MCF7 [1]; Homo sapiens, MCF7, 144 h
  IC50: 0.2 nM

## COc1cc(F)ccc1[C@H]1CSc2cc(C(=O)O)ccc2[C@H]1c1ccc(OCCN2CC(CF)C2)cc1 (racemic)
Estrogen receptor [3]
  DC50: 9.6 nM
MCF7 [1]; Homo sapiens, MCF7, 144 h
  IC50: 1.7 nM

## O=C1CC[C@H](N2Cc3cc(N4CCN(CC5CCN(c6ccc([C@@H]7c8ccc(O)cc8CC[C@@H]7c7ccccc7)cc6)CC5)CC4)ccc3C2=O)C(=O)N1 [VEPDEGESTRANT]
MCF7 [6]
  IC50: 133 nM
[7]
  IC50: 2.12 nM
MCF7 [1]; Homo sapiens, MCF7, 144 h
  IC50: 2.7 nM

## C[C@@H]1Cc2c(ccc3[nH]ncc23)[C@@H](c2ccc(NC3CN(CCCF)C3)cn2)N1CC(F)(F)F [CAMIZESTRANT]
MCF7 [6]
  IC50: 21.2 nM
MCF7 [1]; Homo sapiens, MCF7, 144 h
  IC50: 0.68 nM

## Oc1ccc2c(c1)OC[C@H](c1ccc(F)cc1F)[C@@H]2c1ccc(OCCN2CC(CF)C2)nc1 (racemic)
MCF7 [1]; Homo sapiens, MCF7, 144 h
  IC50: 1.7 nM

## C[C@]12CC[C@@H]3c4ccc(O)cc4C[C@@H](CCCCCCCCC[S+]([O-])CCCC(F)(F)C(F)(F)F)[C@H]3[C@@H]1CC[C@@H]2O (stereo not given in full) [FULVESTRANT]
[9]
  IC50: 15.3 nM
[10]
  IC50: 13.3 nM

## COc1ccc([C@H]2COc3cc(O)ccc3[C@H]2c2ccc(OCCN3CC(CF)C3)cc2)c(F)c1 (racemic)
[2]
  IC50: 3.5 µM
MCF7 [1]; Homo sapiens, MCF7, 144 h
  IC50: 0.87 nM

## O=C(O)c1ccc2c(c1)CCCC(c1ccc(Cl)cc1Cl)=C2c1ccc(O[C@H]2CCN(CCCF)C2)cc1 [AMCENESTRANT]
[10]
  IC50: 57.5 nM
MCF7 [1]; Homo sapiens, MCF7, 144 h
  IC50: 3.9 nM

## Oc1ccc2c(c1)OC[C@H](c1ccc(F)cc1F)[C@@H]2c1ccc(OC2CN(CCCF)C2)cc1 (racemic)
Estrogen receptor [3]
  DC50: 2.8 nM
MCF7 [1]; Homo sapiens, MCF7, 144 h
  IC50: 7.7 nM

## Oc1ccc2c(c1)OC[C@H](c1ccc(F)cc1F)[C@@H]2c1ccc(OCCN2CC(CF)C2)cc1F (racemic)
[2]
  IC50: 5.4 µM

## COc1cc(F)ccc1[C@H]1CSc2cc(O)ccc2[C@H]1c1ccc(OCCN2CC(CF)C2)cc1 (racemic)
[2]
  IC50: > 40 µM
MCF7 [1]; mcf7
  IC50: 0.6 nM
